Reference: the RepoRT retention time repository

Assay: A: acetonitrile + 0.1% formic acid + 10 mM ammonium formate; B: 5% water + 95% acetonitrile + 0.1% formic acid + 10 mM ammonium formate; gradient (min/%B) 0/10 2/10 22/100 27/100 27.1/10
Settings: stereoisomer not certain

Row | LC retention time | SMILES
1 | 0.421 min | CCC=CCC1C(=O)CCC1CC(=O)OC (mixture of isomers) [Methyl Jasmonate (mixture of isomers)]
2 | 4.49 min | COc1ccc2[nH]cc(CC(N)C(=O)O)c2c1 (racemic) [5-Methoxy-DL-tryptophan]
3 | 1.21 min | CC(C)NCC(O)COc1cccc2ccccc12 (racemic) [(+/-)-Propranolol]
4 | 2.67 min | CCN1CCCC1CNC(=O)c1cc(S(N)(=O)=O)ccc1OC (racemic) [(+/-)-Sulpiride]
5 | 0.815 min | COc1ccc(CCN(C)CCCC(C#N)(c2ccc(OC)c(OC)c2)C(C)C)cc1OC (racemic) [(+/-)-Verapamil]
6 | 7.79 min | NCC(N)C(=O)O (racemic) [DL-2,3-Diaminopropionic acid]
7 | 7.93 min | NCC(O)CCC(N)C(=O)O (racemic) [DL-5-Hydroxylysine]
8 | 0.473 min | NC(=O)CCCCC1CCSS1 (racemic) [DL-6,8-Thioctamide]
9 | 5.69 min | NC(CCS)C(=O)O (racemic) [DL-Homocysteine]
10 | 0.968 min | O=C(O)C(O)Cc1c[nH]c2ccccc12 (racemic) [DL-Indole-3-lactic acid]
11 | 5.38 min | NC(Cc1cccc(O)c1)C(=O)O (racemic) [DL-m-Tyrosine]
12 | 1.32 min | CC(=O)NC(Cc1c[nH]c2ccccc12)C(=O)O (racemic) [N-Acetyl-DL-Tryptophan]
13 | 5.82 min | CC(=O)NC(CO)C(=O)O (racemic) [N-Acetyl-DL-serine]
14 | 0.407 min | CC(C)CCCC(C)C1CCC2C3CCC4=CC(=O)CCC4(C)C3CCC12C (single isomer, unassigned; (+)) [(+)-4-Cholesten-3-one]
15 | 0.729 min | O=c1[nH]c(=O)n(C2CC(O)C(CO)O2)cc1I (single isomer, unassigned; (+)) [(+)-5-Iodo-2'-deoxyuridine]
16 | 0.417 min | C=C(C)C1CCC2=CC(=O)CC(C)C2(C)C1 (single isomer, unassigned; (+)) [(+)-Nootkatone]
17 | 2.17 min | CC(C)(CO)C(O)C(=O)NCCC(=O)O (single isomer, unassigned; (+)) [(+)-Pantothenic acid]
18 | 0.405 min | CC(C)=CCCC(C)CC=O (single isomer, unassigned; (-)) [(-)-Citronellal]
19 | 0.438 min | CC1=CCC2CC1C2(C)C (single isomer, unassigned; (-)) [(-)-alpha-Pinene]
20 | 2.45 min | CCCCCCCCCCCCCCCC(=O)OCC(COP(=O)(O)O)OC(=O)CCCCCCCCCCCCCCC (stereo not given) [1,2-Dipalmitoyl-sn-glycero-3-phosphate]
21 | 0.423 min | COc1cc(OC)cc(OC)c1 [1,3,5-Trimethoxybenzene]

Row | LC retention time | SMILES
22 | 0.655 min | Cn1c(=O)[nH]c2ncn(C)c2c1=O [1,7-dimethylxanthine]
23 | 0.554 min | O=C(O)CCCCCCCCCCCC(=O)O [1,11-Undecanedicarboxylic acid]
24 | 2.36 min | NC12CC3CC(CC(C3)C1)C2 [1-Aminoadamantane]
25 | 6.03 min | NC1(C(=O)O)CC1 [1-Aminocyclopropanecarboxylic acid]
26 | 0.425 min | c1coc(Cn2cccc2)c1 [1-Furfurylpyrrole]
27 | 4.68 min | C[n+]1cccc(C(=N)[O-])c1 [1-Methylnicotinamide]
28 | 3.32 min | Cn1c(=O)[nH]c2[nH]c(=O)[nH]c2c1=O [1-Methyluric acid]
29 | 1.39 min | Nc1ncnc2c1ncn2C1CC(O)C(CO)O1 (stereo not given) [2'-Deoxyadenosine]
30 | 3.51 min | Nc1ccn(C2CC(O)C(CO)O2)c(=O)n1 (stereo not given) [2'-Deoxycytidine]
31 | 7.1 min | Nc1nc2c(ncn2C2CC(O)C(COP(=O)(O)O)O2)c(=O)[nH]1 (stereo not given) [2'-Deoxyguanosine 5'-monophosphate]
32 | 4.06 min | Nc1nc2c(ncn2C2CC(O)C(CO)O2)c(=O)[nH]1 (stereo not given) [2'-Deoxyguanosine]
33 | 1.23 min | O=c1ccn(C2CC(O)C(CO)O2)c(=O)[nH]1 (stereo not given) [2'-Deoxyuridine]
34 | 0.451 min | CC1=CC(=O)C(C)O1 (stereo not given) [2,5-Dimethyl-2,3-dihydrofuran-3-one]
35 | 8.06 min | NC(CCCC(N)C(=O)O)C(=O)O (stereo not given) [2,6-Diaminopimelic Acid]
36 | 0.628 min | COc1cccc(OC)c1C(=O)O [2,6-Dimethoxybenzoic acid]
37 | 0.441 min | CC(=O)c1cnccn1 [2-Acetylpyrazine]
38 | 5.89 min | CC(C)(N)C(=O)O [2-Aminoisobutyric acid]
39 | 4.11 min | CCCCCCC(N)C(=O)O (stereo not given) [2-Aminooctanoic acid]
40 | 0.586 min | CCc1occc(=O)c1O [2-Ethyl-3-hydroxy-4H-pyran-4-one]
41 | 1.14 min | O=C(O)CNC(=O)c1ccccc1O [2-Hydroxy Hippuric Acid]
42 | 0.436 min | COc1ccccc1C=CC=O [2-Methoxycinnamaldehyde]

Row | LC retention time | SMILES
43 | 1.55 min | CCC(C)C(=O)NCC(=O)O (stereo not given) [2-Methylbutyrylglycine]
44 | 3.28 min | Cc1ccccc1C(=O)NCC(=O)O [2-Methylhippuric acid]
45 | 3.08 min | O=C(O)c1ccccn1 [2-Picolinic acid]
46 | 3.64 min | O=C(O)CNC(=O)c1ccc(O)cc1 [2-[(4-Hydroxyphenyl)formamido]acetic acid]
47 | 3.5 min | NC(Cc1cc(I)c(Oc2ccc(O)c(I)c2)c(I)c1)C(=O)O (stereo not drawn) [3,3',5-Triiodo-l-thyronine]
48 | 0.47 min | COc1cc(C=CC(=O)O)cc(OC)c1OC [3,4,5-Trimethoxycinnamic acid]
49 | 0.571 min | O=Cc1ccc(O)c(O)c1 [3,4-Dihydroxybenzaldehyde]
50 | 0.554 min | COc1ccc(CC(=O)O)cc1OC [3,4-Dimethoxyphenylacetic acid]
51 | 3.63 min | N[C@@H](Cc1cc(I)c(Oc2ccc(O)cc2)c(I)c1)C(=O)O [3,5-Diiodo-L-Thyronine]
52 | 0.433 min | COc1cc(O)cc(OC)c1 [3,5-Dimethoxyphenol]
53 | 5.88 min | CC(CN)C(=O)O (stereo not given) [3-Aminoisobutanoic acid]
54 | 0.613 min | Cc1occc(=O)c1O [3-Hydroxy-2-methyl-4-pyrone]
55 | 0.467 min | O=C(O)CCc1c[nH]c2ccccc12 [3-Indolepropionic acid]
56 | 7.74 min | Cn1cncc1C[C@H](N)C(=O)O [3-Methyl-L-histidine]
57 | 2.75 min | Cn1cnc(=N)c2[nH]cnc21 [3-Methyladenine]
58 | 0.412 min | Cc1c[nH]c2ccccc12 [3-Methylindole]
59 | 1.15 min | Cn1c(=O)[nH]c(=O)c2[nH]cnc21 [3-Methylxanthine]
60 | 4.76 min | N[C@@H](Cc1ccc(O)c([N+](=O)[O-])c1)C(=O)O [3-Nitro-L- tyrosine]
61 | 4.57 min | NC(=O)NCCC(=O)O [3-Ureidopropionic acid]
62 | 0.441 min | Nc1ccc(S(=O)(=O)c2ccc(N)cc2)cc1 [4,4'-Diaminodiphenyl sulfone]
63 | 0.575 min | CC(=O)CC(=O)CCC(=O)O [4,6-Dioxoheptanoic acid]

Row | LC retention time | SMILES
64 | 1.23 min | CC(=O)NCCCC(=O)O [4-(Acetylamino)butanoic acid]
65 | 0.477 min | CC(=O)Nc1ccc(O)cc1 [4-Acetamidophenol]
66 | 0.517 min | Nc1ccc(O)cc1 [4-Aminophenol]
67 | 0.675 min | Nc1ccc(C(=O)O)c(O)c1 [4-Aminosalicylic Acid]
68 | 5.73 min | NC(N)=NCCCC(=O)O [4-Guanidinobutyric acid]
69 | 0.535 min | COc1cc(CC(=O)O)ccc1O [4-Hydroxy-3-methoxyphenylacetic Acid]
70 | 3.98 min | O=Cc1ccc(O)cc1 [4-Hydroxybenzaldehyde]
71 | 0.875 min | Cc1ncc(CO)c(C(=O)O)c1O [4-Pyridoxic acid]
72 | 0.621 min | CC1CNC(=O)NC1=O (stereo not given) [5,6-Dihydro Thymine]
73 | 0.733 min | Cc1cc2nc[nH]c2cc1C [5,6-Dimethylbenzimidazole]
74 | 3.02 min | NC(=O)c1ncn(C2OC(CO)C(O)C2O)c1N [5-Aminoimidazole-4-carboxamide-1-beta-D-ribofuranoside]
75 | 5.89 min | NCC(=O)CCC(=O)O [5-Aminolevulinic acid]
76 | 1.82 min | Nc1ccc(O)c(C(=O)O)c1 [5-Aminosalicylic acid]
77 | 5.83 min | NCCCCC(=O)O [5-Aminovaleric acid]
78 | 0.651 min | O=C(O)Cc1c[nH]c2ccc(O)cc12 [5-Hydroxyindole-3-acetic acid]
79 | 3.15 min | Cc1cnc(=O)[nH]c1N [5-Methylcytosine]
80 | 1.78 min | Cc1cn(C2OC(CO)C(O)C2O)c(=O)[nH]c1=O (stereo not given) [5-Methyluridine]
81 | 5.34 min | Cn1c[n+](C2OC(CO)C(O)C2O)c2nc(N)nc([O-])c21 (stereo not given) [7-Methylguanosine]
82 | 1.37 min | Cn1cnc2[nH]c(=O)[nH]c(=O)c21 [7-Methylxanthine]
83 | 0.423 min | CC(=O)C1=CCC2C3CCC4=CC(=O)CCC4(C)C3CCC12C (stereo not given) [16-Dehydroprogesterone]
84 | 0.437 min | CC(=O)C1(O)CCC2C3CCC4=CC(=O)CCC4(C)C3CCC21C (stereo not drawn) [17-alpha-Hydroxyprogesterone]

Row | SMILES | LC retention time
85 | CC(C)C(N)CC(=O)O (racemic) [DL-beta-Leucine] | 5.29 min
86 | CCCCCCCCCCCCCC(=O)OCC(COP(=O)(O)OCCN)OC(=O)CCCCCCCCCCCCC (stereo not given) [1,2-Dimyristoyl-sn-glycero-3-phosphoethanolamine] | 2.44 min
87 | NCC(O)c1ccccc1 (stereo not given) [2-Amino-1-phenylethanol] | 2.92 min
88 | COc1cc(CCN)ccc1O [3-Methoxytyramine] | 2.92 min
89 | COc1ccc2[nH]cc(CCN)c2c1 [5-Methoxytryptamine] | 2.21 min
90 | O=C(O)c1ccc(=O)[nH]c1 [6-Hydroxynicotinic acid] | 5.17 min
